The source of these data is patent US10000454B2, “Antidiabetic tricyclic compounds” (Merck Sharp & Dohme Corp., priority 2014, dated 2018).

Broadly, the EC50 is the concentration giving half of the maximal effect.

In test [1] the target is T1, Human GPR40 (Homo sapiens, UniProt O14842). The test can be described thus: FLIPR assay, agonist-induced calcium mobilization. The format is cell-based. Details: expressed in transfected cells. Conditions: GPR40/CHO NFAT BLA cells. The protocol:
(§1) Human and mouse GPR40 stable cell-lines were generated in CHO cells stably expressing NFAT BLA (Beta-lactamase). A human GPR40 stable cell-line was generated in HER cells stably expressing the aequorin expressing reporter. The expression plasmids were transfected using lipofectamine (Life Technologies) following manufacturer's instructions. Stable cell-lines were generated following drug selection.
FLIPR (Fluorimetric Imaging Plate Reader, Molecular Devices) assays were performed to measure agonist-induced calcium mobilization of the stable clones. For the FLIPR assay, one day before assay, GPR40/CHO NFAT BLA cells were seeded into black-wall-clear-bottom 384-well plates (Costar) at 1.4×10e4 cells/20 μL medium/well. The cells were incubated with 20 μl/well of the assay buffer (HMS, 0.1% BSA, 20 mM HEPES, 2.5 mM probenecid, pH 7.4) containing 8 μM fluo-4, AM, 0.08% pluronic acid at room temperature for 100 minutes. Fluorescence output was measured using FLIPR. Compounds were dissolved in DMSO and diluted to desired concentrations with assay buffer. 13.3 μL/well of compound solution was added.
In general terms: Calcium flux is commonly read through the fluorescence of an indicator in the cells.

The target in test [2] is T1, Human GPR40. Put plainly: Inositol Phosphate Turnover (IP1) Assay. The format is cell-based. Details: expressed in transfected cells; host or cells: HEK cells (stably expressing the aequorin reporter). Conditions: HEK cells stably expressing human GPR40, CisBio IP-One kit. The protocol:
as §1
The assay is performed in 384-well format. HEK cells stably expressing human GPR40 are plated at 15,000 cells per well in growth medium (DMEM/10% fetal calf serum). Cell plates are then incubated 16 hours at 37 degrees in a 5% CO2 incubator.
Measurement of Inositol Phosphate Turnover (IP1) is performed using the CisBio IP-One kit (Part number 62IPAPEB). After the 16 hour incubation, the cells are washed with HEPES buffer and 10 ul of stimulation buffer (prepared as described in the kit) is added to each well. In a separate plate, compounds are diluted in DMSO (400-fold over the final concentration in the assay well) and 25 nl is acoustically transferred to the appropriate well in the assay cell plate. The plates are then incubated for 60 minutes at 37 degrees. 10 ul of detection buffer (also prepared as described in the IP-One kit) is added to each well and the plates are incubated for 60 minutes in the dark. The plates are then read in a Perkin Elmer EnVision or equivalent reader able to measure FRET. Fluorescent ratio of emission at 665 and 620 nm is then converted to IP1 concentration by back calculating from an IP1 standard curve prepared at the time of the assay.

Structures are written as SMILES.

T1 sequence (O14842 whole entry): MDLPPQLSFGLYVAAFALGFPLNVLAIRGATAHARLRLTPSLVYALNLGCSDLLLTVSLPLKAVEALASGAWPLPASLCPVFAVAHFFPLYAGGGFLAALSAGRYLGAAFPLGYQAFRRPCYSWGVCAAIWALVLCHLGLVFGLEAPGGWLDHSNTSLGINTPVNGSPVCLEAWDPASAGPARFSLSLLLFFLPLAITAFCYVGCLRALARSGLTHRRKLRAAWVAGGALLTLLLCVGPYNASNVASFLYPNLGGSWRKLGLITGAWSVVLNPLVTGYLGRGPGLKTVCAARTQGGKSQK

On to `CN1CC(C)(C)c2cc(F)c(COc3cc4c(cn3)[C@H]3[C@@H](C4)[C@@H]3C(=O)O)cc2[C@H]1c1ccccc1C(F)(F)F` [Example 73, (5aR,6S,6aS)-3-(((S)-6-fluoro-2,4,4-trimethyl-1-(2-(trifluoromethyl)phenyl)-1,2,3,4-tetrahydroisoquinolin-7-yl)methoxy)-5,5a,6,6a-tetrahydrocyclopropa[4,5]cyclopenta[1,2-c]pyridine-6-carboxylic acid], for which the concentration giving a half-maximal response (EC50) at Human GPR40 [1] was 18.6 nM; at Human GPR40 [2], 21.1 nM.
The like results for `CC1(C)CC(c2ccccc2Cl)c2cc(COc3cc4c(cn3)[C@H]3[C@@H](C4)[C@@H]3C(=O)O)ccc21` (stereo partly drawn) [Example 11, (5aR,6S,6aS)-3-((3-(2-chlorophenyl)-1,1-dimethyl-2,3-dihydro-1H-inden-5-yl)methoxy)-5,5a,6,6a-tetrahydro-cyclopropa[4,5]cyclopenta [1,2-c]pyridine-6-carboxylic acid] were, in that order, 17.8 nM and 35.1 nM.
Regarding `Cn1cnc2cccc(C3CC(C)(C)c4ccc(COc5cc6c(cn5)[C@H]5[C@@H](C6)[C@@H]5C(=O)O)cc43)c21` (stereo partly drawn) [Example 16, (5aR,6S,6aS)-3-((1,1-dimethyl-3-(1-methyl-1H-benzo[d]imidazol-7-yl)-2,3-dihydro-1H-inden-5-yl)methoxy)-5,5a,6,6a-tetrahydrocyclopropa[4,5] cyclopenta[1,2-c]pyridine-6-carboxylic acid], the EC50 on Human GPR40 [1] amounted to 7.29 nM; at Human GPR40 [2], 27.7 nM.
For `CC1(C)CC(c2cccnc2C(F)(F)F)c2cc(COc3cc4c(cn3)[C@H]3[C@@H](C4)[C@@H]3C(=O)O)c(F)cc21` (stereo partly drawn) [Example 26, (5aR,6S,6aS)-3-((6-fluoro-1,1-dimethyl-3-(2-(trifluoromethyl)pyridin-3-yl)-2,3-dihydro-1H-inden-5-yl)methoxy)-5,5a,6,6a-tetrahydrocyclopropa [4,5]cyclopenta[1,2-c]pyridine-6-carboxylic acid], the concentration giving a half-maximal response (EC50) at Human GPR40 [1] is 14.1 nM; at Human GPR40 [2], 20.8 nM.
For `O=C(O)[C@H]1[C@@H]2Cc3cc(OCc4cc5c(cc4F)C(F)(F)CC5c4ccccc4C(F)(F)F)ncc3[C@@H]21` (single isomer, unassigned) [Example 70], the results for the concentration for a half-maximal effect (EC50) at Human GPR40 [1] and at Human GPR40 [2] were 5.99 nM and 15.8 nM, respectively.
With `O=C(O)[C@H]1[C@@H]2Cc3cc(OCc4ccc5c(c4)C(O)(c4ccccc4C(F)(F)F)CC5)ccc3[C@@H]21` (stereo partly drawn) [Example 21, (1S,1aS,6aR)-4-((3-hydroxy-3-(2-(trifluoromethyl)phenyl)-2,3-dihydro-1H-inden-5-yl)methoxy)-1,1a,6,6a-tetrahydrocyclopropa[a]indene-1-carboxylic acid], the half-maximal effective concentration (EC50) on Human GPR40 [1] was found to be 17.7 nM; at Human GPR40 [2] it was 16.6 nM.
`CC1CCc2ccc(COc3cc4c(cn3)[C@H]3[C@@H](C4)[C@@H]3C(=O)O)cc2C1c1ccccc1C(F)(F)F` (stereo partly drawn) [Example 46, (5aR,6S,6aS)-3-((7-methyl-8-(2-(trifluoromethyl)phenyl)-5,6,7,8-tetrahydronaphthalen-2-yl)methoxy)-5,5a,6,6a-tetrahydrocyclopropa[4,5]cyclopenta[1,2-c]pyridine-6-carboxylic acid]: the EC50 was 8.74 nM on Human GPR40 [1] and 79.6 nM on Human GPR40 [2].
For `Cc1nc(OCCC(C)(C)O)ccc1C1CCCc2ccc(COc3cc4c(cn3)[C@H]3[C@@H](C4)[C@@H]3C(=O)O)cc21` (stereo partly drawn) [Example 30, (5aR,6S,6aS)-3-((8-(6-(3-hydroxy-3-methylbutoxy)-2-methylpyridin-3-yl)-5,6,7,8-tetrahydronaphthalen-2-yl)methoxy)-5,5a,6,6a-tetrahydrocyclopropa[4,5] cyclopenta[1,2-c]pyridine-6-carboxylic acid], the EC50 is 33 nM at Human GPR40 [1] and 35 nM on Human GPR40 [2].
On to `CC1(C)CC(c2ccccc2F)c2cc(COc3cc4c(cn3)[C@H]3[C@@H](C4)[C@@H]3C(=O)O)ccc21` (stereo partly drawn) [Example 17, (5aR,6S,6aS)-3-((1,1-dimethyl-3-(2-fluorophenyl)-2,3-dihydro-1H-inden-5-yl)methoxy)-5,5a,6,6a-tetrahydrocyclopropa[4,5] cyclopenta[1,2-c]pyridine-6-carboxylic acid], for which the concentration giving a half-maximal response (EC50) at Human GPR40 [1] is 21.7 nM; on Human GPR40 [2], 43.7 nM.
With `O=C(O)[C@H]1[C@@H]2Cc3cc(OCc4ccc5c(c4)C(c4ccccc4C(F)(F)F)OCC5)ncc3[C@@H]21` (stereo partly drawn) [Example 50, (5aR,6S,6aS)-3-((1-(2-(trifluoromethyl)phenyl)isochroman-7-yl)methoxy)-5,5a,6,6a-tetrahydrocyclopropa[4,5]cyclopenta[1,2-c]pyridine-6-carboxylic acid], the EC50 on Human GPR40 [1] was 43.2 nM; on Human GPR40 [2] it was 15 nM.
As to `CC1(C)CC(c2ccncc2C(F)(F)F)c2cc(COc3cc4c(cn3)[C@H]3[C@@H](C4)[C@@H]3C(=O)O)c(F)cc21` (some centres unmarked) [Example 25], the EC50 on Human GPR40 [1] came to 6.92 nM; at Human GPR40 [2] it was 6.91 nM.
Turning to `O=C1CC(c2ccccc2C(F)(F)F)c2cc(COc3cc4c(cn3)[C@H]3[C@@H](C4)[C@@H]3C(=O)O)ccc21` (stereo partly drawn) [Example 2, (5aR,6S,6aS)-3-((1-oxo-3-(2-(trifluoromethyl)-phenyl)-2,3-dihydro-1H-inden-5-yl)methoxy)-5,5a,6,6a-tetrahydro-cyclopropa[4,5]cyclopenta [1,2-c]pyridine-6-carboxylic acid], the EC50 was 50.5 nM on Human GPR40 [1] and 47.4 nM at Human GPR40 [2].
For `CC1(C)NC(c2ccccc2C(F)(F)F)c2cc(COc3cc4c(cn3)[C@H]3[C@@H](C4)[C@@H]3C(=O)O)ccc21` (stereo partly drawn) [Example 39, (5aR,6S,6aS)-3-((1,1-dimethyl-3-(2-(trifluoromethyl)phenyl)isoindolin-5-yl)methoxy)-5,5a,6,6a-tetrahydrocyclopropa[4,5]cyclopenta[1,2-c]pyridine-6-carboxylic acid], the values for the EC50 at Human GPR40 [1] and at Human GPR40 [2] were 13.9 nM and 15.4 nM, respectively.
For the compound `O=C(O)[C@H]1[C@@H]2Cc3cc(OCc4ccc5c(c4)C(c4ccccc4C(F)(F)F)CCC5)ncc3[C@@H]21` (single isomer, unassigned) [Example 42], the results for the concentration giving a half-maximal response (EC50) at Human GPR40 [1] and at Human GPR40 [2] were 17.6 nM and 9.87 nM, respectively.
As for `CC1(C)CC(c2ccccc2S(C)(=O)=O)c2cc(COc3cc4c(cn3)[C@H]3[C@@H](C4)[C@@H]3C(=O)O)ccc21` (stereo partly drawn) [Example 13, (5aR,6S,6aS)-3-((1,1-dimethyl-3-(2-(methyl-sulfonyl)phenyl)-2,3-dihydro-1H-inden-5-yl)methoxy)-5,5a,6,6a-tetrahydrocyclopropa[4,5] cyclopenta[1,2-c]pyridine-6-carboxylic acid], the EC50 came to 22.6 nM on Human GPR40 [1] and 40.6 nM on Human GPR40 [2].
Take `O=C(O)[C@H]1[C@@H]2Cc3cc(OCc4ccc5c(c4)C(c4ccccc4C(F)(F)F)CC54CC4)ncc3[C@@H]21` (stereo partly drawn) [Example 1, (5aR,6S,6aS)-3-((3′-(2-(trifluoromethyl)phenyl)-2′,3′-dihydrospiro[cyclopropane-1,1′-inden]-5′-yl)methoxy)-5,5a,6,6a-tetrahydrocyclopropa[4,5]cyclopenta[1,2-c]pyridine-6-carboxylic acid]: the EC50 at Human GPR40 [1] is 32.6 nM; at Human GPR40 [2], 11.4 nM.
Take `CC1(C)CC(c2c(F)cccc2F)c2cc(COc3cc4c(cn3)[C@H]3[C@@H](C4)[C@@H]3C(=O)O)ccc21` (stereo partly drawn) [Example 10, (5aR,6S,6aS)-3-((3-(2,6-difluorophenyl)-1,1-dimethyl-2,3-dihydro-1H-inden-5-yl)methoxy)-5,5a,6,6a-tetrahydro-cyclopropa[4,5]cyclopenta [1,2-c]pyridine-6-carboxylic acid]: the EC50 on Human GPR40 [1] is 4.9 nM; on Human GPR40 [2], 38.9 nM.
For `CC1(C)CC(c2ccccc2C(F)(F)F)c2cc(COc3cc4c(cn3)[C@H]3[C@@H](C4)[C@@H]3C(=O)O)c(F)cc21` (single isomer, unassigned) [Example 23] the same measures were 19.9 nM and 16.6 nM.
As for `O=C(O)[C@H]1[C@@H]2Cc3cc(OCc4ccc5c(C6CC6)cn(-c6ccccc6C(F)(F)F)c5c4)ncc3[C@@H]21` [Example 37, (5aR,6S,6aS)-3-({3-cyclopropyl-1-[2-(trifluoromethyl)phenyl]-1H-indol-6-yl}methoxy)-5,5a,6,6a-tetrahydrocyclopropa[4,5] cyclopenta[1,2-c]pyridine-6-carboxylic acid], the concentration giving a half-maximal response (EC50) on Human GPR40 [1] worked out at 42.5 nM; on Human GPR40 [2], 91.5 nM.
